Reference: paper PMC6335420, “The cell cycle regulator GpsB functions as cytosolic adaptor for multiple cell wall enzymes” (Nature Communications, 2019)
Like-named read-outs stand apart in the source and are kept apart here. Residues, ends and D or L forms follow the SMILES beside them. *: point of attachment. Fluorescein(5-Mal) = O=C1OC2(c3ccc(O)cc3Oc3cc(O)ccc32)c2ccc(N3C(=O)CC(*)C3=O)cc21; X1 = CN(C)c1ccc2c(-c3ccc(N4C(=O)CC(*)C4=O)cc3C(=O)[O-])c3ccc(=[N+](C)C)cc-3oc2c1

What was measured:
SpGpsB1-63Asp33Ala = biological target: T1, SpGpsB1-63Asp33Ala (Streptococcus pneumoniae, UniProt Q8DR57, D33A); experiment: Fluorescence polarisation binding to SpGpsB1-63Asp33Ala; details: FP, SpGpsB1-63Asp33Ala relative to wild-type SpGpsB1-63
T1 construct: His6 (N, cleaved yes); made in house; host or cells: E. coli BL21(DE3)
From the text: (§1) 75 the BsGpsB5-64:BsPBP11-17 complex.

SpGpsB1-63 = biological target: T2, SpGpsB1-63 (Streptococcus pneumoniae, UniProt Q8DR57); experiment: Fluorescence polarisation binding to SpGpsB1-63; details: FP
T2 construct: The SpGpsB1-63 expression construct (pET28SpGpsB1-63) was prepared by PCR amplification of gpsB; His6 (N, cleaved yes); made in house; host or cells: E. coli BL21(DE3)
From the text: as §1

LmGpsB1-73 = biological target: T3, LmGpsB1-73 (Listeria monocytogenes serovar 1/2a, UniProt Q8Y614); experiment: Fluorescence polarisation binding to LmGpsB1-73; details: FP
T3 construct: made in house; host or cells: E. coli BL21(DE3)
From the text: as §1

BsGpsB1-68Lys32Glu = biological target: T4, BsGpsB1-68Lys32Glu (Bacillus subtilis, UniProt P0CI74, K32E); experiment: Fluorescence polarisation binding to BsGpsB1-68Lys32Glu; details: FP
T4 construct: His6 (N, cleaved yes); made in house; host or cells: E. coli BL21(DE3)
From the text: as §1

BsGpsB1-68 [1] = biological target: T5, BsGpsB1-68 (Bacillus subtilis, UniProt P0CI74); assay type: binding; details: FP
T5 construct: His6 (N, cleaved yes); made in house; host or cells: E. coli BL21(DE3)
From the text: as §1

BsGpsB1-68 [2] = biological target: T5, BsGpsB1-68; details: FP, compared with residue-16-labelled peptide; ref 3 (supplement); cited from earlier work
L. monocytogenes [3] = experiment: L. monocytogenes fosfomycin susceptibility (filter disc); assay type: cell-based, Listeria monocytogenes EGD-e; details: halo around filter disc, BHI agar, 37 °C; pbpA1 R8A,R12A and Q10P mutants; triplicate
Protocol: Fosfomycin susceptibility was recorded using filter discs (Ø 6 mm) soaked with 10 µL of a 10 mg^−1mL^−1 fosfomycin solution. L. monocytogenes colonies, grown on BHI agar plates, were resuspended in BHI broth and used to swab-inoculate BHI agar plates. Filter discs soaked with fosfomycin were placed on top of the agar surface and the plates were incubated at 37 °C overnight. Diameter of growth inhibition zones was measured and corrected for the filter disc diameter. All experiments were performed three times and average values and standard deviations were calculated. Significance was determined using the t-test and differences were considered to be significant when P < 0.01.

L. monocytogenes [4] = details: 37 °C, vs wild-type L. monocytogenes; cited from earlier work
[5] = Peptidoglycan pulldown assay; assay type: binding, Bacillus subtilis; details: 25 µg protein + 66 µg PG in 100 µL PBS, room temperature 30 min, SDS-PAGE
Protocol: PG pulldown assays were carried out in PBS buffer. B. subtilis PG (SigmaAldrich) was prepared as a 10 mg^−1 mL^−1 stock solution in PBS containing 0.02% sodium azide. 25 µg of protein were added to a 100 µL sample containing 66 µg of PG and the mixture incubated with gentle agitation at room temperature for 30 min. The mixture was centrifuged at 16,000 × g for 7 min, the supernatant removed and the pellet resuspended in 1 mL of ice-cold PBS and immediately centrifuged for 2 min at 16,000 × g. The pellet was resuspended in 1 mL of the appropriate buffer and centrifuged for 2 min at 16,000 × g. Finally the pellet was boiled for 3 min in 60 μL SDS-PAGE loading buffer before analysis by SDS-PAGE; the SDS-PAGE loading buffer lacked reducing agents for YpbE130-240^Ser132Cys samples.

BsYrrS = experiment: BACTH interaction with BsYrrS; assay type: cell-based, Bacillus subtilis; details: E. coli BTH101, nutrient agar, 30 °C

CC[C@H](C)[C@H](NC(=O)[C@@H]1CCCN1C(=O)[C@H](CSC1CC(=O)N(c2ccc(-c3c4ccc(=[N+](C)C)cc-4oc4cc(N(C)C)ccc34)c(C(=O)[O-])c2)C1=O)NC(=O)[C@@H](NC(=O)[C@H](CCC(N)=O)NC(=O)[C@H](C)NC(=O)[C@H](CC(C)C)NC(=O)[C@H](CCCCN)NC(=O)[C@H](CCCCN)NC(=O)[C@H](CCCNC(=N)N)NC(=O)[C@H](CC(=O)O)NC(=O)[C@H](CO)NC(=O)[C@H](CCCNC(=N)N)NC(=O)[C@H](CO)NC(=O)[C@H](CCCNC(=N)N)NC(=O)[C@H](CCCNC(=N)N)NC(=O)[C@H](CC(C)C)NC(=O)[C@@H](NC(=O)[C@@H](NC(=O)[C@H](CO)NC(=O)[C@H](CC(=O)O)NC(=O)[C@H](CO)NC(=O)[C@H](CC(=O)O)NC(=O)[C@H](CCSC)NC(=O)[C@H](CO)NC(=O)CN)[C@@H](C)O)[C@@H](C)CC)C(C)C)C(=O)O (some centres unmarked) [TAMRA-SpPBP2a23-45] (H-GSMDSDSTILRRSRSDRKKLAQVC(X1)PI-OH)
reduction in affinity on GpsB mutation (SpGpsB1-63Asp33Ala): ~ 40 fold
binding to SpGpsB1-63 (in words) (SpGpsB1-63): interacts

CSCC[C@H](NC(=O)[C@H](CO)NC(=O)CN)C(=O)N[C@@H](C)C(=O)N[C@@H](CC(=O)O)C(=O)N[C@@H](CCCCN)C(=O)N1CCC[C@H]1C(=O)N[C@@H](CCC(N)=O)C(=O)N[C@H](C(=O)N[C@@H](CCCNC(=N)N)C(=O)N[C@@H](CO)C(=O)N[C@@H](CCC(N)=O)C(=O)N[C@@H](Cc1ccc(O)cc1)C(=O)N[C@@H](CCCNC(=N)N)C(=O)N[C@@H](CC(N)=O)C(=O)N[C@@H](CCCCN)C(=O)N[C@@H](CCC(N)=O)C(=O)N[C@@H](CO)C(=O)NCC(=O)NCC(=O)N[C@@H](CSC1CC(=O)N(c2ccc3c(c2)C(=O)OC32c3ccc(O)cc3Oc3cc(O)ccc32)C1=O)C(=O)N[C@@H](CCCCN)C(=O)O)[C@@H](C)O (some centres unmarked) [Fluorescein-LmPBPA11-20] (H-GSMADKPQTRSQYRNKQSGGC(Fluorescein(5-Mal))K-OH; N-terminus and C-terminus assumed)
binding to LmGpsB1-73 (in words) (LmGpsB1-73): affinity similar to that of BsPBPA1_1-32 for BsGpsB1-68
binding to BsGpsB1-68Lys32Glu (in words) (BsGpsB1-68Lys32Glu): almost identical

CSCC[C@H](NC(=O)[C@H](CO)NC(=O)CN)C(=O)N[C@@H](C)C(=O)N[C@@H](CC(=O)O)C(=O)N[C@@H](CCC(N)=O)C(=O)N[C@@H](Cc1ccccc1)C(=O)N[C@@H](CC(N)=O)C(=O)N[C@@H](CO)C(=O)N[C@@H](CCCNC(=N)N)C(=O)N[C@@H](CCC(=O)O)C(=O)N[C@@H](C)C(=O)N[C@@H](CCCNC(=N)N)C(=O)N[C@@H](CCCNC(=N)N)C(=O)N[C@@H](CCCCN)C(=O)N[C@@H](C)C(=O)N[C@@H](CC(N)=O)C(=O)N[C@@H](CO)C(=O)N[C@@H](CCCCN)C(=O)N[C@@H](CO)C(=O)N[C@@H](CO)C(=O)N1CCC[C@H]1C(=O)N[C@@H](CO)C(=O)N1CCC[C@H]1C(=O)N[C@@H](CCCCN)C(=O)N[C@@H](CCCCN)C(=O)NCC(=O)N[C@@H](CCCCN)C(=O)N[C@@H](CCCCN)C(=O)N[C@@H](CCCNC(=N)N)C(=O)N[C@@H](CCCCN)C(=O)N[C@@H](CCCCN)C(=O)N[C@@H](CSC1CC(=O)N(c2ccc3c(c2)C(=O)OC32c3ccc(O)cc3Oc3cc(O)ccc32)C1=O)C(=O)NCC(=O)O (some centres unmarked) [Fluorescein-BsPBP11-32] (H-GSMADQFNSREARRKANSKSSPSPKKGKKRKKC(Fluorescein(5-Mal))G-OH; N-terminus and C-terminus assumed)
binding to BsGpsB1-68 (in words) (BsGpsB1-68 [1]; listed as BsPBP1_1-32 peptide labelled with fluorescein at position 31): the measured affinity was the same as if the fluorophore was at position 16
binding to BsGpsB1-68 (in words) (BsGpsB1-68 [1]; listed as peptide labelled at the C-terminus with fluorescein): same affinity as a peptide labelled
affinity of residue-31-labelled peptide (in words) (BsGpsB1-68 [2]): same affinity

C[C@@H]1O[C@@H]1P(=O)(O)O [fosfomycin]
fosfomycin sensitivity (L. monocytogenes [3]): Effects on fosfomycin sensitivity were apparent in mutants carrying the pbpA1^Arg8Ala,Arg12Ala and pbpA1^Gln10Pro alleles but only when LmPBPA2, the LmPBPA1 paralogue, was also absent
fosfomycin susceptibility of ΔgpsB mutants (L. monocytogenes [4]): more susceptible

B1: BsYpbE130-240^Ser132Cys: disulphide cross-linked dimeric form of BsYpbE130-240 (protein, UniProt P50731 130-240, looked up, variant S132C)
chain: EDCKPKEQTAADKKQTAVAEKEDSPNKEEATAAAASSSQSTVQQQEQPAEPVQNVPNRVVKHTVQKKETLYRISMKYYKSRTGEEKIRAYNHLNGNDVYTGQVLDIPLMDE
modifications: disulphide-linked dimer
binding to peptidoglycan [5]: enhanced considerably relative to the monomeric, cysteine-free version

B2: BsPBP1: B. subtilis class A PBP1 (protein)
chain: MSDQFNSREARRKANSKSSPSPKKGKKRKKGGLFKKTLFTLLILFVLGVVGGAVTFAVMVSDAPSLDESKLKTPYSSTIYDKNGKEIAEVGAEKRTYVSIDEIPDVVKEAFIATEDARFYEHHGIDPVRIGGALVANFKDGFGAEGGSTITQQVVKNSLLSHQKTLKRKVQEVWLSIQLERNYSKDEILEMYLNRIYFSPRAYGIGKAAEEFFGVTDLSKLTVEQAATLAGMPQSPTAYNPVKNPDKAEKRRNIVLSLMKKQGFISDSQYNKAKKVAVKDEGVVSQKEYEKASTNKYSAFVEEVMKEIDEKSDVDPSADGLKIYTTLDTKAQDKLDELMDGDTVGFTEGMQGGVTLLDTKNGEVRAIGAGRNQPVGGFNYATQTKAQPGSTIKPILDYGPVIENKKWSTYEQIDDSAYTYSNGKPIRDWDRKYLGPISMRYALAQSRNIPALKAFQAVGKDTAVDFANGLGLGLTKDNVTEAYSIGGFGGNDGVSPLTMAGAYSAFGNNGTYNEPHFVKSIEFNDGTKLDLTPKSKSAMSDYTAFMITDMLKTAVKTGTGQLAQVPGVEVAGKTGTTNFDDNEVKRYNIASGGARDSWFVGYTPQYTAAVWTGMGENEAGKKSLSAEEQKVAKRIFAQLIADVDDGSGSFEKPDSVVEATVEKGSNPAKLAGPNTPSDKKLTEYFVKGTAPSTVSKTYEKEEKEETAKLSGLNVKYDKDNQSLTLSWNYDGDATFAVKQSVDGGSYSEIQNSSAKEAVISGVQPGSVYKFEVTAVSDDGKSTASTSYEVPKAEDDEDKKDQQQTDDEKQDDEKTQDDTQTDDSQKDDGQTDQDQTDDSTNDQDKKQDNTNTNPSDNNNQDQSNDNDNDNSNNQDTSDGDSNSGKNDSTGSDTNKNKTDTSNKTQTNSSSIEKTN
modifications: left off: His6, end not stated, cleaved
notes: B. subtilis class A PBP1
BACTH interaction with BsYrrS (BsYrrS): interacted
